From the OPERA property sets (Mansouri et al. 2018) come the findings set out here.

Broadly, the logP is the decadic logarithm of the partition coefficient of the neutral form, usually between octanol and water.

In turn, `NC(=O)c1ccccc1N` gave a log partition coefficient (logP) of 0.35.

Compound `Nc1ncnc2nn[nH]c12` gave a logP of -0.96.

For `C[C@H](N)[C@H](O)c1cccc(O)c1`, the logP is -0.27.

`O=[N+]([O-])c1cccs1` showed a log partition coefficient (logP) of 1.55.

In turn, `O=[N+]([O-])c1ccc(OCCN2CCOCC2)cc1` returned a logP of 1.54.

The compound `CC(C)C(N)C(=O)O` (centres undefined) yielded a log partition coefficient (logP) of -2.26.

For the compound `O=C(CNC(=O)c1ccccc1)Oc1ccccc1`, the logP is 2.31.

Take `Oc1cc(Cl)cc(Cl)c1`: the logP was found to be 3.62.

As for `CN(C)C(=O)C=Cc1ccccc1`, the log partition coefficient (logP) is 1.73.

For the compound `c1ccc(Sc2cccnc2)cc1`, the logP came out at 3.15.

`CON(C)C(=O)Nc1ccc(C(C)=O)cc1` came in with a logP of 1.22.

In turn, `O=C(c1ccccc1)c1ccncc1` displayed a logP of 1.98.

Consider `CCOCCN(CCOCC)N=O`, for which the logP came to 0.79.

In turn, `O=Cc1ccc2cccccc1-2` showed a lipophilicity (logP) of 2.64.

The compound `CNC(=O)Nc1ccc(OC)c(Cl)c1` showed a lipophilicity (logP) of 1.76.

`CCOP(=S)(OCC)SC(CCl)N1C(=O)c2ccccc2C1=O` (centres undefined) returned a logP of 4.69.

Turning to `NS(=O)(=O)c1cccc([N+](=O)[O-])c1`, the logP amounted to 0.55.

On to `CCCOc1cc(N)ccc1C(=O)O`, for which the logP came out at 1.53.

In the case of `COc1cc(NCc2ccc3nc(N)nc(N)c3c2C)cc(OC)c1OC`, the lipophilicity (logP) is 2.55.

For `Oc1ccc(N=C=S)cc1`, the log partition coefficient (logP) came to 2.74.

`NC(=O)NC(=O)Cc1ccccc1` displayed a logP of 0.87.

`COP(=O)(OC)Oc1ccc([N+](=O)[O-])cc1` registered a logP of 1.33.

As to `[O-][n+]1cccc(O)c1`, the log partition coefficient (logP) is -0.61.

As to `COc1ccccc1S(I)=C(N(C)C)N(C)C` (centres undefined), the lipophilicity (logP) was -0.52.

As for `CNC(=O)Oc1cc(Cl)ccc1Cl`, the logP was 2.44.

In turn, `CC1OC(=O)c2ccccc21` (centres undefined) showed a logP of 1.41.

Consider `CC(=O)OCCn1c([N+](=O)[O-])cnc1C`, for which the lipophilicity (logP) turned out to be 0.3.

On to `Cc1cccc(OCC(O)CNC(C)C)c1` (centres undefined), for which the logP was determined as 1.93.

`CCCCOc1ccc(C(=O)O)cc1` came in with a lipophilicity (logP) of 3.57.

`O=[N+]([O-])c1ccc(C=NO)cc1` displayed a logP of 1.95.

`O=C(Nc1ccn(C2OC(CO)C(O)C2O)c(=O)n1)c1ccccc1` (centres undefined) yielded a logP of 0.3.

`Nc1cccnc1`: the lipophilicity (logP) was 0.11.

Take `CC1CCC(=O)CC1`: the logP came out at 1.38.

Turning to `CC(=O)Nc1c(I)c(C(=O)N[C@H]2C(O)O[C@H](CO)[C@@H](O)[C@@H]2O)c(I)c(N(C)C(C)=O)c1I` (some centres undefined), the lipophilicity (logP) was -1.89.

Consider `Cc1c(O)c(=O)ccn1CCN`, for which the logP is -1.55.

In the case of `Oc1c(F)cc(Cn2cc[nH]c2=S)cc1F`, the logP came out at 1.08.

`OCC1OC(OCc2ccccc2)C(O)C(O)C1O` (centres undefined) showed a lipophilicity (logP) of -0.7.

In turn, `CO` had a logP of -0.77.

In turn, `Clc1ccc(-c2cc(Cl)c(Cl)c(Cl)c2Cl)c(Cl)c1` registered a logP of 7.44.

In turn, `NC(=O)Nc1ccccc1Cl` yielded a logP of 1.27.

In turn, `CON(C)C(=O)Nc1ccc(OCCCCOc2ccccc2)cc1` displayed a lipophilicity (logP) of 3.57.

For `CCCCCCCCCC1(c2ccncc2)CCC(=O)NC1=O` (centres undefined), the logP was determined as 4.64.

Consider `CC(C)C[N+](=O)[O-]`, for which the logP came out at 1.4.

Compound `COc1cccc(-c2cc3ccccn3c2)c1` showed a logP of 4.14.

The compound `OCCCCCc1ccccn1` yielded a logP of 1.28.

`O=[N+]([O-])c1ccccc1F` came in with a logP of 1.69.

As for `CCCC(=NOCC)C1C(=O)CC2(CCCCC2)OC1=O` (centres undefined), the logP is 3.62.

In turn, `Oc1c(Cl)cc(Cl)c(Cl)c1Cl` showed a logP of 4.45.

The compound `Nc1ncnc2c1ncn2C1CC(O)C(CO)O1` (centres undefined) displayed a log partition coefficient (logP) of -0.55.

Consider `CC(=O)CCC(=O)O`, for which the log partition coefficient (logP) is -0.49.

Turning to `CC(C)(C)NC(=O)[C@H]1CC[C@H]2[C@@H]3CC[C@H]4NC(=O)C=C[C@]4(C)[C@H]3CC[C@]12C`, the logP was 3.03.

The compound `COc1ccc(C)cc1N` returned a lipophilicity (logP) of 1.74.

Turning to `O=C(OCCc1ccccc1)c1ccccc1`, the logP was 4.01.

For `COc1ccc(Cl)cc1C(=O)NCCc1ccc(C(=O)O)cc1`, the lipophilicity (logP) turned out to be 3.4.

`COC(=O)c1ccc(NC(C)=O)cc1`: the logP stood at 1.79.

`C=CCC1(CC)C(=O)NC(=O)NC1=O` yielded a logP of 0.95.

Turning to `ON=Cc1ccccc1`, the logP stood at 1.85.

Turning to `O=C(O)COc1ccccc1O`, the logP came to 0.85.

As for `O[C@@H]1CCCC[C@H]1O`, the logP was 0.08.

As for `O=Cc1ccc(Cl)cc1`, the logP is 2.1.

Regarding `c1ccc2c(c1)[nH]c1ccccc12`, the logP was found to be 3.72.

As for `CCNc1nc(NC(C)(C)C)nc(SC)n1`, the log partition coefficient (logP) amounted to 3.74. The logP values of the last two compounds are within 0.2 log units of each other.

The compound `COc1ccc2ncccc2c1` had a log partition coefficient (logP) of 2.2.

On to `Oc1cccc(C(F)(F)F)c1`, for which the logP came out at 2.95.

`CC(=O)N(C)N=Nc1ccc(C(N)=O)cc1` yielded a log partition coefficient (logP) of 1.37.

The compound `O=C(O)COc1cccc(F)c1` showed a log partition coefficient (logP) of 1.48.

As for `CC(=O)c1cccc(S(I)=C(N(C)C)N(C)C)c1` (centres undefined), the logP is -0.88.

`COP(=S)(OC)SCSc1ccc(Cl)cc1` yielded a log partition coefficient (logP) of 4.82.

The compound `CCCCC(N)Cc1ccccc1` (centres undefined) displayed a logP of 3.36.

In turn, `COc1ccc(OC)c(Cc2cnc3nc(N)nc(N)c3c2C)c1` displayed a logP of 2.13.

With `CCCCC(=O)OC`, the log partition coefficient (logP) is 1.96.

Compound `C1CCNC1` displayed a logP of 0.46.

Consider `CCCCSC#N`, for which the logP was determined as 2.03.

In turn, `COc1ccc(CN(C)N=O)cc1` gave a logP of 1.62.

Regarding `OCCN1CCN(C2CC(c3ccc(F)cc3)c3ccc(C(F)(F)F)cc32)CC1` (centres undefined), the logP was 4.39.

`O=C(CC(=O)C(F)(F)F)c1cccs1`: the logP came to 1.46.

The compound `Nc1ccc(C(=O)Oc2cccc(Br)c2)c(O)c1` registered a lipophilicity (logP) of 3.84.

Take `CCOP(=S)(OCC)Oc1cc(C)nc(C(C)C)n1`: the logP turned out to be 3.81.

On to `COC(=O)c1cccc(S(I)=C(N(C)C)N(C)C)c1` (centres undefined), for which the logP was -0.75.

In turn, `COc1ccccc1OC(C)=O` returned a log partition coefficient (logP) of 1.38.

`O=[N+]([O-])c1ccc2[nH]ccc2c1` registered a log partition coefficient (logP) of 2.53.

As for `COc1cc(SC)c(OC)cc1CC(C)N` (centres undefined), the log partition coefficient (logP) came to 2.17.

With `COCC(O)Cn1cnc([N+](=O)[O-])n1` (centres undefined), the logP is -0.49.

For the compound `COCCN(CCOC)N=O`, the logP was -0.38.

With `Nc1ccc2cc3ccc(N)cc3nc2c1`, the lipophilicity (logP) stood at 1.83.

Compound `COc1ccccc1NS(=O)(=O)c1ccc(N)cc1` returned a lipophilicity (logP) of 1.56.

Turning to `OCCN1CCCCC1`, the lipophilicity (logP) was found to be 0.96.

Take `CCC(C)=O`: the logP was found to be 0.29.

Turning to `Cc1ccc(/N=C/N(C)/C=N/c2ccc(C)cc2C)c(C)c1`, the log partition coefficient (logP) was determined as 5.5.

Regarding `C=C(Br)CC1(C(C)CCC)C(=O)NC(=O)NC1=O` (centres undefined), the logP came out at 2.09.

In turn, `NNC(=O)c1ccnc(N)c1` came in with a logP of -0.98.

The compound `[N-]=[N+]=CC(=O)NCC(N)=O` registered a logP of -1.26.

`Clc1cc(Cl)c2c(Cl)ccc(Cl)c2c1` yielded a logP of 5.76.

Take `O=C(O)CCCc1c[nH]c2ccccc12`: the logP is 2.3.

`CC(=O)Nc1ccc2ncccc2c1`: the lipophilicity (logP) came out at 1.55.

`CCCCc1c(C)nc(NCC)nc1OS(=O)(=O)N(C)C` gave a log partition coefficient (logP) of 2.7.

Consider `CCCCOC(=O)c1ccc(N)cc1`, for which the logP turned out to be 2.87. The logP values of the last two compounds are within 0.2 log units of each other.

Turning to `C=CCO`, the logP was found to be 0.17.

With `CCNc1nc(NC(C)(C)C)nc(SC(F)F)n1`, the lipophilicity (logP) was found to be 4.57.
